± gives the expanded uncertainty stated by the source.
Details: 298.15 K; 101.33 kPa; Liquid; Vibrating tube method

mass density | SMILES
1754.28 ± 0.44 kg/m3 | FC(F)(F)C(F)(F)C(F)(F)C(F)(F)C(F)(F)C(F)(F)C(F)(F)C(F)(F)F [octadecafluorooctane]
1670.07 ± 0.32 kg/m3 | FC(F)(F)C(F)(F)C(F)(F)C(F)(F)C(F)(F)C(F)(F)F [perfluorohexane]

Source: the NIST ThermoML archive (doi:10.1016/j.fluid.2010.05.018)
